How the values were obtained:
NHE3 = target: T1, NHE3 (Homo sapiens, UniProt P48764); test: Cell-based assay of NHE-3 activity (persistent inhibition), human; settings: human Persistence, 60 min incubation then washout
T1 construct: expressed in transfected cells
T1 sequence (P48764 26-834): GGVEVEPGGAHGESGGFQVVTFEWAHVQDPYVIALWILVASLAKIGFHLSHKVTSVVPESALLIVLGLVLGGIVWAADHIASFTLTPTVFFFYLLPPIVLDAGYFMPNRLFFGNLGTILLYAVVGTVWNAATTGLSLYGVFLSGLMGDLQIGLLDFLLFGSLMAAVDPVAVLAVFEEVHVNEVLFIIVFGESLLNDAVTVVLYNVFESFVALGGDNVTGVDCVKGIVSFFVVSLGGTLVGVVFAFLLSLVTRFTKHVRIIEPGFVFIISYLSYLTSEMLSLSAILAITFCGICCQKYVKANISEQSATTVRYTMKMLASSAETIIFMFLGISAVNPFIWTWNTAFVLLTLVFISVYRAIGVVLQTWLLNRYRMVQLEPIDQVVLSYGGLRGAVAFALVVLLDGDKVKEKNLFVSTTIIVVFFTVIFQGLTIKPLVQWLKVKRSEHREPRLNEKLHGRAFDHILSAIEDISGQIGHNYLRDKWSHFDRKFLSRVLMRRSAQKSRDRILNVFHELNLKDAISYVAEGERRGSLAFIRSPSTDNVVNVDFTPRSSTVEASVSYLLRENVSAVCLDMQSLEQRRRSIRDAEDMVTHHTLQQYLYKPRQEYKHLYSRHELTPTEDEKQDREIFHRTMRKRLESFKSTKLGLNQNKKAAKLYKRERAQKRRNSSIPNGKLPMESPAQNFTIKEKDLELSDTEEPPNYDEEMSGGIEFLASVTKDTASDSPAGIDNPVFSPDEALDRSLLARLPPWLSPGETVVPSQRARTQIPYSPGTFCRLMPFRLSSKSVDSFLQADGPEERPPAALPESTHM
T1 sequence (Q99653 2-195 partner limits assumed): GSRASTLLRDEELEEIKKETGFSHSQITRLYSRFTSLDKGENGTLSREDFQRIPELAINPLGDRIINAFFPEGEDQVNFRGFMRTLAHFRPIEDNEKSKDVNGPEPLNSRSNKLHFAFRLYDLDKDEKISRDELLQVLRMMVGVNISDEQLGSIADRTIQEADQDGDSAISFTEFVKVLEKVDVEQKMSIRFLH
In short: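 PS120 fibroblasts expressing human NHE3 with NHERF2 exposed to 0-30 μM compound for 60 min at RT, then washed out; cells acid-loaded by NH4Cl prepulse with BCECF-AM and Na+-free buffer. Na+-driven pH recovery started 10 min post-washout; initial rate of BCECF ratio change (FLIPR) taken as activity.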

[1] = test system: human ileum monolayer culture; test: Sustained inhibition of apical acid secretion in human organoid monolayer cell cultures (ileum); format: cell-based; settings: Homo sapiens, 48 h; 1 μM apical, dosed day 6, apical media pH day 8, vs DMSO
Experimental: Basal media (BM) consisted of advanced DMEM/F12 containing 10 mM HEPES Invitrogen, 15630-080), 1:100 Glutamax (Invitrogen, 35050-061), and 1:100 penicillin/streptomycin (Invitrogen, 15140-122). Supplemented basal media (SBM) contained 1:100 N2 (Invitrogen, 17502-048), 1:50 B27 (Invitrogen, 12587-010), 1 mM N-acetylcysteine (Sigma, A9165), and 10 nM [Leu15]-gastrin I (Sigma, G9145). Growth factors used included 50 ng per mL mouse EGF (Peprotech, 315-09), 100 ng per mL mouse noggin (Peprotech, 250-38), 500 ng per mL human R-spondin 1 (R&D, 4645-RS), 100 ng per mL mouse Wnt-3a (R&D, 1324-WN), 20 μM. Y-27632 (Tocris, 1254), 10 mM nicotinamide (Sigma, N0636), 500 nM A83-01 (Tocris, 2939), 10 μM SB202190 (Tocris, 1264). Transwells were 0.4 μm pore polyester membrane 24-well Transwell inserts (Corning). Cultures were incubated at 37° C. in 5% CO2.
Human ileum organoids were cultured in WENRNAS (Wnt, EGF, noggin, R-spondin1, Nicotinamide, A83-01, SB202190) and typically grown for 7-12 days before being used to plate monolayer cultures. On day 0, organoid cultures embedded in Matrigel were treated with TrypLE Express to break organoids into small pieces and/or single cells. The cells were resuspended to 0.5×10^6 cells/mL in SBM containing WENRAY (Wnt, EGF, noggin, R-spondin1, A83-01, Y-27632). Following this step, 200 μL of cell suspension was plated into the apical side of a 24-well Transwell (100,000 cells/well) and 600 μL of SBM with WENRAY was added to the basolateral side. Ileum cells were differentiated with ENRA (EGF, noggin, R-spondin 1, A83-01) on day 3. The color of apical compartment turns from pink or orange to yellow due to the increase in NHE3 expression after differentiation.
Each human ileum monolayer culture well was washed twice with fresh SBM on the apical side on day 6 before compound dosing. All compound stocks were 10 mM dissolved in DMSO. Each compound stock was individually mixed with fresh SBM to reach final compound concentration 1 μM and dosed only on the apical side of the monolayer (total volume 200 μl). DMSO at the equivalent concentration was used as the vehicle control. Duplicate wells were dosed for each compound. On day 8, apical media pH was measured by pH electrode, to determine the ability of example compounds to produce sustained inhibition of NHE3 activity in a human monolayer culture system by preventing proton secretion into the apical compartment.

% inhibition (NHE3)	pIC50 (NHE3)	Structure (SMILES)	inhibition at 1 µM [1]
C (>70%)	C (NHE3 pIC50 > 7)	Cc1cc(S(=O)(=O)NCCOCCOCCNC(=O)NCCCCNC(=O)NCCOCCOCCNS(=O)(=O)c2ccc(O[C@H]3c4cc(Cl)cc(Cl)c4C[C@@H]3N3CCNCC3)c(C)c2)ccc1O[C@H]1c2cc(Cl)cc(Cl)c2C[C@@H]1N1CCNCC1 [Example 32, 3-[2-(2-[2-[(4-[[(1S,2S)-4,6-Dichloro-2-(piperazin-1-yl)-2,3-dihydro-1H-inden-1-yl]oxy]-3-methylbenzene)sulfonamido]ethoxy]ethoxy)ethyl]-1-[4-([[2-(2-[2-[(4-[[(1S,2S)-4,6-dichloro-2-(piperazin-1-yl)-2,3-dihydro-1H-inden-1-yl]oxy]-3-methylbenzene)sulfonamido]ethoxy]ethoxy)ethyl]carbamoyl]amino)butyl]urea; bis(trifluoroacetic acid)]	> 70%
C (>70%)	–	O=C(NCCCCNC(=O)NCCOCCOCCNS(=O)(=O)c1ccc(O[C@H]2c3cc(Cl)cc(Cl)c3C[C@@H]2N2CCNCC2)c(F)c1)NCCOCCOCCNS(=O)(=O)c1ccc(O[C@H]2c3cc(Cl)cc(Cl)c3C[C@@H]2N2CCNCC2)c(F)c1 [Example 33, 3-[2-(2-[2-[(4-[[(1S,2S)-4,6-Dichloro-2-(piperazin-1-yl)-2,3-dihydro-1H-inden-1-yl]oxy]-3-fluorobenzene)sulfonamido]ethoxy]ethoxy)ethyl]-1-[4-[[(2-(2-[2-[(4-[[(1S,2S)-4,6-dichloro-2-(piperazin-1-yl)-2,3-dihydro-1H-inden-1-y]oxy]-3-fluorobenzene)sulfonamido]ethoxy]ethoxy)ethyl]carbamoyl]amino)butyl]urea; bis(trifluoroacetic acid)]	> 70%
C (>70%)	–	Cc1cc(Cl)cc2c1C[C@H](N1CCNCC1)[C@H]2Oc1ccc(S(=O)(=O)NCCOCCOCCNC(=O)NCCCCNC(=O)NCCOCCOCCNS(=O)(=O)c2ccc(O[C@H]3c4cc(Cl)cc(C)c4C[C@@H]3N3CCNCC3)cc2)cc1 [Example 34, 3-[2-(2-[2-[(4-[[(1S,2S)-6-Chloro-4-methyl-2-(piperazin-1-yl)-2,3-dihydro-1H-inden-1-yl]oxy]benzene)sulfonamido]ethoxy]ethoxy)ethyl]-1-[4-([[2-(2-[2-[(4-[[(1S,2S)-6-chloro-4-methyl-2-(piperazin-1-yl)-2,3-dihydro-1H-inden-1-yl]oxy]benzene)sulfonamido]ethoxy]ethyl)ethyl]carbamoyl]amino)butyl]urea; bis(trifluoroacetic acid)]	50 to 70%
C (>70%)	C (NHE3 pIC50 > 7)	Cc1cc(S(=O)(=O)NCCOCCOCCNC(=O)NCCCCNC(=O)NCCOCCOCCNS(=O)(=O)c2ccc(O[C@H]3c4cc(Cl)cc(C)c4C[C@@H]3N3CCNCC3)c(C)c2)ccc1O[C@H]1c2cc(Cl)cc(C)c2C[C@@H]1N1CCNCC1 [Example 35, 3-[2-(2-[2-[(4-[[(1S,2S)-6-Chloro-4-methyl-2-(piperazin-1-yl)-2,3-dihydro-1H-inden-1-yl]oxy]-3-methylbenzene)sulfonamido]ethoxy]ethoxy)ethyl]-1-[4-([[2-(2-[2-[(4-[[(1S,2S)-6-chloro-4-methyl-2-(piperazin-1-yl)-2,3-dihydro-1H-inden-1-yl]oxy]-3-methylbenzene)sulfonamido]ethoxy]ethoxy)ethyl]carbamoyl]amino)butyl]urea; bis(trifluoroacetic acid)]	> 70%
C (>70%)	C (NHE3 pIC50 > 7)	Cc1cc(Cl)cc2c1C[C@H](N1CCNCC1)[C@H]2Oc1ccc(S(=O)(=O)NCCOCCOCCNC(=O)NCCCCNC(=O)NCCOCCOCCNS(=O)(=O)c2ccc(O[C@H]3c4cc(Cl)cc(C)c4C[C@@H]3N3CCNCC3)c(F)c2)cc1F [Example 36, 3-[2-(2-[2-[(4-[[(1S,2S)-6-Chloro-4-methyl-2-(piperazin-1-yl)-2,3-dihydro-1H-inden-1-yl]oxy]-3-fluorobenzene)sulfonamido]ethoxy]ethoxy)ethyl]-1-[4-([[2-(2-[2-[(4-[[(1S,2S)-6-chloro-4-methyl-2-(piperazin-1-yl)-2,3-dihydro-1H-inden-1-yl]oxy]-3-fluorobenzene)sulfonamido]ethoxy]ethoxy)ethyl]carbamoyl]amino)butyl]urea; bis(trifluoroacetic acid)]	> 70%
C (>70%)	C (NHE3 pIC50 > 7)	N#Cc1cc(Cl)cc2c1C[C@H](N1CCNCC1)[C@H]2Oc1ccc(S(=O)(=O)NCCOCCOCCNC(=O)NCCCCNC(=O)NCCOCCOCCNS(=O)(=O)c2ccc(O[C@H]3c4cc(Cl)cc(C#N)c4C[C@@H]3N3CCNCC3)cc2)cc1 [Example 41, 3-[2-(2-[2-[(4-[[(1S,2S)-6-Chloro-4-cyano-2-(piperazin-1-yl)-2,3-dihydro-1H-inden-1-yl]oxy]benzene)sulfonamido]ethoxy]ethoxy)ethyl]-1-[4-([[2-(2-[2-[(4-[[(1S,2S)-6-chloro-4-cyano-2-(piperazin-1-yl)-2,3-dihydro-1H-inden-1-yl]oxy]benzene)sulfonamido]ethoxy]ethoxy)ethyl]carbamoyl]amino)butyl]urea; bis(trifluoroacetic acid)]	50 to 70%
C (>70%)	C (NHE3 pIC50 > 7)	Cc1cc(S(=O)(=O)NCCOCCOCCNC(=O)NCCCCNC(=O)NCCOCCOCCNS(=O)(=O)c2ccc(O[C@H]3c4cc(Cl)cc(C#N)c4C[C@@H]3N3CCNCC3)c(C)c2)ccc1O[C@H]1c2cc(Cl)cc(C#N)c2C[C@@H]1N1CCNCC1 [Example 42, 3-[2-(2-[2-[(4-[[(1S,2S)-6-Chloro-4-cyano-2-(piperazin-1-yl)-2,3-dihydro-1H-inden-1-yl]oxy]-3-methylbenzene)sulfonamido]ethoxy]ethoxy)ethyl]-1-[4-([[2-(2-[2-[(4-[[(1S,2S)-6-chloro-4-cyano-2-(piperazin-1-yl)-2,3-dihydro-1H-inden-1-yl]oxy]-3-methylbenzene)sulfonamido]ethoxy]ethoxy)ethyl]carbamoyl]amino)butyl]urea; bis(trifluoroacetic acid)]	> 70%

From patent US11242337B2, “Compounds useful for treating gastrointestinal tract disorders” (Ardelyx, Inc., priority 2017, dated 2022)
